# In patent US4902791A, “Nitrosourea derivatives, process for their preparation and medicaments containing them” (Sanofi S.A., priority 1983, dated 1990):
# Legend:
# [1] = toxicological study, lethal doses (Table IA); details: mouse, in vivo
# Excerpt: The results relating to toxicology are brought together in Table IA below:
# L1210 U.S.A. strain = assay: antitumor activity on leukemia L1210 U.S.A., compounds of formula IA, I.P.; format: in vivo, mouse
# Experimental: On the day of the graft (by convention day 0=DO) an inoculum of 1×10^5 tumor cells in a volume of 0.2 ml is administered to each mouse by the intraperitoneal route (I.P.).
# This inoculum is prepared by diluting ascites fluid taken from the peritoneum of a donor female mouse in NCTC 109 medium (Eurobio Laboratories Paris, France), counting of the cells in a MALASSEZ cell under a microscope and adjustment of the concentration to 5×10^5cells per ml.
# After the tumor graft has been made, the mice are distributed at random in cages of 5 animals. Subsequently, these cages containing 5 mice are themselves distributed at random into a control group (control) and groups treated with the products of the invention.
# (§1) The doses of the products of the invention used in the different experiments are expressed in milligrams per kilogram of body weight.
# (§2) The products to be injected were dissolved in isotonic sodium chloride solution.
# Two protocols for treatment were used in the different experiments:
# (§3) or 3 I.P. injections on D1, D5, D9.
# (§4) In each experiment the animals of the control group received 1 or more injections, depending on the experimental protocol used, by the same route (I.P. or I.V.) of the same volume (0.2 ml/20 g) of the vehicle not containing the active principle (isotonic sodium chloride solution).
# (§5) the number and percentage of the total of the mice surviving to D60,
# (§6) the T/C×100 for treated groups.
# (§7) T representing the mean survival time of the mice in the treated group
# (§8) C representing the mean survival time of the mice in the control group (control).
# melanoma B16 [2] = assay: antitumor activity on melanoma B16, compounds of formula IA, I.P.; format: in vivo, mouse; details: B6 D2 F1, I.P. D1, D5, D9, 3×10 mg/kg
# Experimental: The experiments were always carried out on SPF female mice B6 D2 F1/JIco (first generation hybrids between the lines C5BL/6 and DBA/2).
# On the day of the graft (Day 0) an inoculum of 2×10^6 tumor cells in a volume of 0.5 ml is administered to each mouse by the intraperitoneal route (I.P.). This inoculum is prepared from a sub-cutaneous tumor excised from a donor female mouse. After excision the tumor is fragmented by means of a pair of scissors in the NCTC 109 medium. After filtration through sterile gauze in order to remove large cellular fragments, the homogeneous cell suspension obtained is counted by means of a MALASSEZ cell and diluted to the desired concentration (4×10^6 tumor cells per ml) by dilution with the NCTC 109 medium.
# This was performed in the manner described previously for the leukemia L1210.
# as §1, §2, §3, §4, §5, §6, §7, §8
# melanoma B16 [3] = assay: activity toward melanoma B16 implanted subcutaneously, I.V. route; format: in vivo, mouse
# Experimental: The activity of the substances of the invention was also tested by administering the said substances of the invention by the I.V. route. 0.5 ml of an homogenate of the tumor (1 g/10 ml) is administered to B6C3F1 female mice by the subcutaneous (S.C. route) on day 0. The products of the invention and the substances used for comparison are administered on days 3, 7 and 11 in isotonic solution.
# In Table IIA below the results are presented relating to the activity of the substance CI. 1675 administered by the I.V. route on the growth of the melanoma B16 implanted subcutaneously, in comparison with carmustine BCNU marketed under the name of BiCNU®.
# In Table IIA below and in the subsequent tables, T represents the mean weight (or median) of the tumors in the treated mice, C represents the mean weight (or median) of the tumors in the control, untreated mice and the ratio T/C% corresponds to T/C×100.
# colon carcinoma C38 [4] = assay: activity on colon carcinoma C38 implanted subcutaneously, I.P. days 2 and 9; format: in vivo, mouse
# Experimental: A tumor fragment is implanted on day 0 in female B6 D2 F1 mice (19-22 g). The treatment with all of the products is administered by the I.P. route on days 2 and 9 (which is a delayed treatment). The weight of the tumors is calculated on day 20.
# colon carcinoma C38 [5] = assay: colon carcinoma C38, comparison of I.V. and I.P. routes, treatment days 8, 12, 16; format: in vivo, mouse; design: key to Median wt. of the tumor D20 / Median wt. of the tumor D27: median tumor weight in mg
# Experimental: With a view to verifying the antitumor activity of the product of the invention CI.1671 when it is administered by the I.V. route, another experiment was performed in which this product was administered by the I.P. route and the I.V. route for the purposes of comparison.
# This experiment is carried out under particularly difficult conditions, the first day of the treatment corresponding to the eighth day after the implantation of the carcinoma C38, whereas normally the treatment starts on the day of implantation of the tumor (D0) or 1 day after (D1) the implantation of the tumor.
# The median weight of the tumors on the first day of treatment (day 8) is about 12 mg (tumors varying from 8 to 40 mg). The animals are treated on days 8, 12 and 16 depending on the different routes indicated. […]
# [6] = B6 D2 F1, I.P. D1, D5, D9, 3×1.25 mg/kg
# [7] = B6 D2 F1, I.P. D1, D5, D9, 3×5 mg/kg
# [8] = I.P., 10 mg/kg/inj. days 2 and 9
# [9] = I.P., 20 mg/kg/inj. days 2 and 9
# [10] = I.P., 30 mg/kg/inj. days 2 and 9
smiles,measurement,setting,value
"CO[C@@H]1O[C@H](COC(=O)c2ccccc2)C[C@H](NC(=O)N(CCCl)N=O)[C@H]1O [CI. 1674, methyl 3-[3-(2-chloroethyl)-3 nitrosoureido] 6-benzoyl 3,4-dideoxy-β-D-xylo-hexopyranoside]",LD0,[1],≥ 40 mg/kg
same,Number of survivors at D60,L1210 U.S.A. strain; [6],0/10
same,T/C,L1210 U.S.A. strain; [6],111
same,Number of survivors at D60,L1210 U.S.A. strain; [7],0/10
same,T/C,L1210 U.S.A. strain; [7],130
"CO[C@@H]1O[C@H](CO)C[C@H](NC(=O)N(CCCl)N=O)[C@H]1O [CI. 1675, methyl 3-[3-(2-chloroethyl) 3-nitrosoureido] 3,4-dideoxy-β-D-xylo-hexopyranoside]",LD0,[1],≥ 20 mg/kg
same,LD50,[1],~40 mg/kg
same,Number of survivors at D60,L1210 U.S.A. strain; [6],0/10
same,T/C,L1210 U.S.A. strain; [6],164
same,Number of survivors at D60,L1210 U.S.A. strain; [7],5/10
same,T/C,L1210 U.S.A. strain; [7],> 600
same,Number of survivors at D60,melanoma B16 [2],8/10
same,T/C,melanoma B16 [2],258
same,Median weight of the tumor on day 3,"melanoma B16 [3]; 10 mg/kg/inj. days 3, 7, 11","32,0 mg"
same,Median weight of the tumor on day 30,"melanoma B16 [3]; 10 mg/kg/inj. days 3, 7, 11",2 025 mg
same,T/C on day 30 (tumor weight),"melanoma B16 [3]; 10 mg/kg/inj. days 3, 7, 11","25,9%"
same,Median weight of the tumor on day 3,"melanoma B16 [3]; 15 mg/kg/inj. days 3, 7, 11","23,0 mg"
same,Median weight of the tumor on day 30,"melanoma B16 [3]; 15 mg/kg/inj. days 3, 7, 11",1 044 mg
same,T/C on day 30 (tumor weight),"melanoma B16 [3]; 15 mg/kg/inj. days 3, 7, 11","13,4%"
same,Median weight of the tumor on day 3,"melanoma B16 [3]; 20 mg/kg/inj. days 3, 7, 11","36,0 mg"
same,Median weight of the tumor on day 30,"melanoma B16 [3]; 20 mg/kg/inj. days 3, 7, 11",688 mg
same,T/C on day 30 (tumor weight),"melanoma B16 [3]; 20 mg/kg/inj. days 3, 7, 11","8,8%"
same,efficacy against the colon carcinoma C38,"colon carcinoma C38 [4]; I.P. route, delayed treatment",considerable efficacy
same,Number of mice without tumor/total,colon carcinoma C38 [4]; [8],1/10
same,T/C,colon carcinoma C38 [4]; [8],67%
same,Weight of the tumor on day 20,colon carcinoma C38 [4]; [8],272 mg
same,Number of mice without tumor/total,colon carcinoma C38 [4]; [9],7/9
same,T/C,colon carcinoma C38 [4]; [9],0%
same,Weight of the tumor on day 20,colon carcinoma C38 [4]; [9],0 mg
same,Number of mice without tumor/total,colon carcinoma C38 [4]; [10],7/7
same,T/C,colon carcinoma C38 [4]; [10],0%
same,Weight of the tumor on day 20,colon carcinoma C38 [4]; [10],0 mg
same,dead mice (remarks),colon carcinoma C38 [4]; [10],5
same,Median wt. of the tumor D20,"colon carcinoma C38 [5]; I.P. Route, 10 mg/kg/inj.",324
same,Median wt. of the tumor D27,"colon carcinoma C38 [5]; I.P. Route, 10 mg/kg/inj.",1099
same,Mice without tumor/total D20,"colon carcinoma C38 [5]; I.P. Route, 10 mg/kg/inj.",0
same,Mice without tumor/total D27,"colon carcinoma C38 [5]; I.P. Route, 10 mg/kg/inj.",0
same,T/C % D20,"colon carcinoma C38 [5]; I.P. Route, 10 mg/kg/inj.",57%
same,T/C % D27,"colon carcinoma C38 [5]; I.P. Route, 10 mg/kg/inj.",84%
same,Median wt. of the tumor D20,"colon carcinoma C38 [5]; I.P. Route, 15 mg/kg/inj.",88
same,Median wt. of the tumor D27,"colon carcinoma C38 [5]; I.P. Route, 15 mg/kg/inj.",726
same,Mice without tumor/total D20,"colon carcinoma C38 [5]; I.P. Route, 15 mg/kg/inj.",0
same,Mice without tumor/total D27,"colon carcinoma C38 [5]; I.P. Route, 15 mg/kg/inj.",0
same,T/C % D20,"colon carcinoma C38 [5]; I.P. Route, 15 mg/kg/inj.",15%
same,T/C % D27,"colon carcinoma C38 [5]; I.P. Route, 15 mg/kg/inj.",56%
same,Median wt. of the tumor D20,"colon carcinoma C38 [5]; I.P. Route, 20 mg/kg/inj.",13
same,Median wt. of the tumor D27,"colon carcinoma C38 [5]; I.P. Route, 20 mg/kg/inj.",172
same,Mice without tumor/total D20,"colon carcinoma C38 [5]; I.P. Route, 20 mg/kg/inj.",1/8
same,Mice without tumor/total D27,"colon carcinoma C38 [5]; I.P. Route, 20 mg/kg/inj.",2/8
same,T/C % D20,"colon carcinoma C38 [5]; I.P. Route, 20 mg/kg/inj.",2%
same,T/C % D27,"colon carcinoma C38 [5]; I.P. Route, 20 mg/kg/inj.",13%
same,Median wt. of the tumor D20,"colon carcinoma C38 [5]; I.V. Route, 10 mg/kg/inj.",23
same,Median wt. of the tumor D27,"colon carcinoma C38 [5]; I.V. Route, 10 mg/kg/inj.",352
same,Mice without tumor/total D20,"colon carcinoma C38 [5]; I.V. Route, 10 mg/kg/inj.",0/8
same,Mice without tumor/total D27,"colon carcinoma C38 [5]; I.V. Route, 10 mg/kg/inj.",0/8
same,T/C % D20,"colon carcinoma C38 [5]; I.V. Route, 10 mg/kg/inj.",4%
same,T/C % D27,"colon carcinoma C38 [5]; I.V. Route, 10 mg/kg/inj.",27%
same,Median wt. of the tumor D20,"colon carcinoma C38 [5]; I.V. Route, 15 mg/kg/inj.",0
same,Median wt. of the tumor D27,"colon carcinoma C38 [5]; I.V. Route, 15 mg/kg/inj.",0
same,Mice without tumor/total D20,"colon carcinoma C38 [5]; I.V. Route, 15 mg/kg/inj.",7/8
same,Mice without tumor/total D27,"colon carcinoma C38 [5]; I.V. Route, 15 mg/kg/inj.",7/7
same,T/C % D20,"colon carcinoma C38 [5]; I.V. Route, 15 mg/kg/inj.",0%
same,T/C % D27,"colon carcinoma C38 [5]; I.V. Route, 15 mg/kg/inj.",0%
same,Median wt. of the tumor D20,"colon carcinoma C38 [5]; I.V. Route, 20 mg/kg/inj.",0
same,Median wt. of the tumor D27,"colon carcinoma C38 [5]; I.V. Route, 20 mg/kg/inj.",0
same,Mice without tumor/total D20,"colon carcinoma C38 [5]; I.V. Route, 20 mg/kg/inj.",6/8
same,Mice without tumor/total D27,"colon carcinoma C38 [5]; I.V. Route, 20 mg/kg/inj.",6/6
same,T/C % D20,"colon carcinoma C38 [5]; I.V. Route, 20 mg/kg/inj.",0%
same,T/C % D27,"colon carcinoma C38 [5]; I.V. Route, 20 mg/kg/inj.",0%
